Laboratory results as given in patent US12066445B2, “System and method for cell levitation and monitoring” (THE BRIGHAM AND WOMEN'S HOSPITAL, INC., priority 2014, dated 2024).
Where a name gives a salt, the structure may show the parent alone.

Key:
[1] = system: E. coli; assay: Magnetic levitation profile of E. coli after antibiotic treatment; format: cell-based; conditions: for change of levitation heights and cellular magnetic profiles versus untreated control: E. coli treated two hours, 1 mg/mL, FIG. 21
Source text: As the bacteria respond to the stimuli and antibiotics, their density are altered. This directly reflects on their levitation heights.
With forward reference to FIG. 21, differences are illustrated in the observed magnetic levitation profiles of E. coli cells after different types of antibiotic treatment. […] The magnetic levitation profile of each of these antibiotics are compared to a control (i.e., untreated E. coli cells) in FIGS. 21a, 21b, and 21c, respectively.
(§1) In the examples above, to load samples into a microcapillary tube, microcapillaries were simply dipped into the sample vials, and sample filled into the capillary due to capillary forces. For each experiment, new microcapillary was used. Further, unless otherwise stated, cells were resuspended in 200 μL of 40 mM Gadolinium solution and loaded in 1.0×1.0 mm square microcapillary tubes (wall thickness 0.2 mm) by superficial tension action. Critoseal™ was inserted into either end of the microcapillary to prevent cells from drifting during analysis. The capillary was then loaded into a slot between the magnets and cells were imaged using either QImaging Emc^2 EMCCD camera on an Olympus BX62 microscope or a Qimaging EXi CCD camera on a Zeiss Axioscope microscope. For high-resolution images, a fluorescence microscope leveled on its side was perfectly horizontally placed, and used a mirror-free magnetic levitation setup. The images were analyzed with Slidebook 5.5. (3i, Denver, CO), ImageProPlus 7 (Media Cybernetics, Rockville, MD), and iVison 4.7 (Biovision, Exton PA).

[2] = system: human PMNs; assay: Static levitation of activated and GSH-treated PMNs; format: cell-based
Protocol: Freshly isolated PMNs were activated by incubating them either with buffer (resting PMN), GSH-ME (GSH-treated PMN), or 10 nM PMA (activated PMN) for 5 minutes, washing twice, mixing, and resuspending them in 35 mM Gd+ solution. Prior to treatments, cells were labeled either with Cell Tracker Green (activated PMN) or Cell Mask Deep Red (GSH-treated PMN).
The response of human PMNs during the activation phase of phagocytosis was studied by incubating PMNs with phorbol 12-myristate 13-acetate (PMA, 10 nM) for 10 minutes. As a control, PMNs were left in buffer for 10 minutes. Cells were then washed, fluorescently labeled, mixed together, and loaded into the magnetic levitation setup.
[formula] […] The same samples were simultaneously examined by flow cytometry for changes in forward and side-scatter properties of PMNs associated with PMA activation, shown in FIG. 3d.
To further understand the effect of intracellular ROS on the final position of levitating cells, cell permeable glutathione (GSH), an ROS scavenger was used.

[3] = system: yeast cells; assay: Viability and magnetic levitation of yeast cells after drug treatment; format: cell-based; conditions: for levitation heights, magnetic properties and intrinsic magnetic signatures of yeast cells: 100 μM for 24 hours, 15 minutes of magnetic levitation, FIG. 14b; for viability of yeast cells (optical density): 100 μM, 24 hours, FIG. 14a
Protocol: Looking at FIG. 14, the magnetic levitation and characteristics of yeast cells are illustrated that have either not been exposed or have been exposed to various drug treatments for some duration of time. FIG. 14a graphs the viability of yeast cells after different drug treatments (i.e., no drug treatment/control, 100 μM cantharidin, or 100 μM fluconazole) for 24 hours. […] FIG. 14b provides micrographs illustrating how, after 15 minutes of magnetic levitation, the levitation heights, magnetic properties and intrinsic magnetic signatures of yeast cells are altered after drug treatment with 100 μM cantharidin and 100 μM fluconazole for 24 hours.
Turning now to FIG. 15, this figure provides data relating to the observed drug responses and observed changes in magnetic profile of cells. […] FIG. 15d provides various micrographs of cells treated with different concentration of drug (fluconazole), the treatment concentration being listed above each micrograph. […] It is further noted that these changes can be monitored with the magnetic levitation system at the single-cell level.
as §1

[4] = system: multi-drug resistant E. coli; conditions: cited from earlier work
[5] = system: multi-drug resistant E. coli; assay: Magnetic levitation profile of multi-drug resistant E. coli after antibiotic treatment; format: cell-based; conditions: multi-drug resistant E. coli clinical isolate, 1 mg/mL, two hours, FIG. 22
Protocol: as §1

[6] = system: sickle RBCs; assay: Levitation of healthy and sickle RBCs after sodium metabisulfite-induced dehydration; format: cell-based, human; conditions: 10 μM for 10 minutes at room temperature, images after 10 minutes of levitation
Protocol: RBCs isolated from healthy and sickle cell disease patients were washed three times and incubated with 10 μM sodium metabisulfite for 10 minutes at room temperature. Cells were levitated as described above and images were recorded after 10 minutes. To increase the contrast of the cells against the background, images were filtered using an edge detection algorithm (Roberts).

[7] = system: RBCs; assay: Levitation of RBCs after photolysis of caged ATP; format: cell-based; conditions: extracellular ATP 0 to close to 10 mM after photolysis, 40 mM Gd+, FIG. 4c
Source text: Consistent with this possibility that UV-induced ROS increased the paramagnetic signature of RBCs, in areas with increased cell density, RBCs formed distinct aggregates, shown as the red circle in FIG. 4b, likely due to weak paramagnetic attraction between ROS-containing RBCs. To test this hypothesis, a burst of extracellular ATP to dissociate 2-3 DPG (2,3-diphosphoglycerate) from hemoglobin was used, a process that also transitions RBCs from diamagnetic to weak paramagnetic cells. Isolated RBCs were washed and resuspended in HBSS^++ containing 40 mM Gd+ and 10 mM caged ATP (Life Technologies). RBCs were loaded into the capillary, placed between the magnets, and allowed to focus. Next, a region of 60×900 μm located about 70 μm above the levitating RBCs was selected and illuminated by a […] for 1 second at 100% intensity. The un-caged ATP, released into the suspension increased the extracellular concentration of ATP from 0 to nearly 10 mM. Cells were recorded using Slidebook 5.5. Following photolysis, caged-ATP became ATP, effectively increasing the concentration of biologically-active, extracellular ATP from 0 to close to 10 mM. […]

[8] = system: MDA breast cancer cells
Protocol: FIG. 12b details the real-time observation of a HCl-applied single cell in which a viability assay was also conducted using Calcein (green fluorescent) for live cell and Propidium Iodine (red fluorescent) for dead cell. Fluorescent images and bright field images were overlapped each other to compose the micrographs at different time point.

Molecule: O=C(O)c1cn(C2CC2)c2cc(N3CCNCC3)c(F)cc2c1=O [ciprofloxacin]
- change of levitation heights and cellular magnetic profiles versus untreated control [1]: change the levitation heights and cellular magnetic profiles in a different manner

Molecule: CCCCCCCCCCCCCC(=O)O[C@@H]1[C@@H](C)[C@@]2(O)[C@@H](C=C(CO)C[C@]3(O)C(=O)C(C)=C[C@@H]23)[C@@H]2C(C)(C)[C@]12OC(C)=O [PMA, phorbol 12-myristate 13-acetate]
- size, shape, optical density, magnetic and mass density signatures versus control PMNs ([2]; 10 nM for 10 minutes, FIG. 3a): distinct differences
- roundness of cells versus buffer-treated PMNs ([2]; PMA-activated PMNs, FIG. 3c): significant difference

Molecule: C[C@@]12C(=O)OC(=O)[C@]1(C)[C@H]1CC[C@@H]2O1 [cantharidin]
- levitation heights, magnetic properties and intrinsic magnetic signatures of yeast cells [3]: altered
- viability of yeast cells (optical density) [3]: Different viabilities are observed

Molecule: CC1(C)S[C@@H]2[C@H](NC(=O)[C@H](N)c3ccccc3)C(=O)N2[C@H]1C(=O)O [ampicillin]
- resistance or susceptibility of the clinical isolate [4]: resistant
- change of levitation heights and cellular magnetic profiles versus untreated control [1]: change the levitation heights and cellular magnetic profiles in a different manner
- differences between untreated and treated bacteria in magnetic levitation heights ([1]; E. coli, FIG. 13): significant differences
- change in levitation heights and magnetic levitation profiles [5]: no significant change

Molecule: gentamicin
- resistance or susceptibility of the clinical isolate [4]: susceptible
- change of levitation heights and cellular magnetic profiles versus untreated control [1]: change the levitation heights and cellular magnetic profiles in a different manner
- change in levitation heights and magnetic levitation profiles [5]: noticeable change

Molecule: OC(Cn1cncn1)(Cn1cncn1)c1ccc(F)cc1F [fluconazole]
- levitation heights, magnetic properties and intrinsic magnetic signatures of yeast cells [3]: altered
- viability of yeast cells (optical density) [3]: Different viabilities are observed
- cellular magnetic profiles and single-cell densities ([3]; 25, 50 or 100 μM, FIG. 15): cellular magnetic profiles and densities change

Molecule: O=S([O-])S(=O)(=O)[O-].[Na+].[Na+] [sodium metabisulfite]
- density of a subpopulation of sickle RBCs after treatment [6]: significantly denser than healthy RBCs

Molecule: Nc1ncnc2c1ncn2[C@@H]1O[C@H](COP(=O)(O)OP(=O)(O)OP(=O)(O)O)[C@@H](O)[C@H]1O [ATP]
- changes in magnetic properties and levitation of RBCs [7]: loss of levitation

Molecule: CCOC(=O)CNC(=O)[C@H](CS)NC(=O)CC[C@H](N)C(=O)O [GSH, Glutathione reduced ethyl ester]
- final levitation position of treated PMNs ([2]; 35 mM Gd+ solution, FIG. 3e): equilibrated closer to resting PMNs

Molecule: Cl [HCl, hydrochloric acid]
- levitation height z of treated cells (bottom of the channel) ([8]; 40 minutes of exposure to 100 mM HCl, FIG. 12a): −500 μm
- viability assay (Calcein / Propidium Iodine) of a single cell ([8]; HCl-applied single cell, over 700 seconds, FIG. 12b): dying cell
